# Data taken from patent EP4700023A1, “GLP-1R RECEPTOR AGONIST COMPOUND SALT AND CRYSTAL FORM THEREOF, PREPARATION METHOD THEREFOR AND USE THEREOF” (Chengdu Vincentage Pharma Co., Ltd., priority 2023, dated 2024).
# Structures can show the parent of a compound that is named as a salt.
# Assays:
# [1] = Pharmacokinetic evaluation in rats; format: in vivo; conditions: Rat PK, 10 mg/kg
# Method: Rats were used as test animals, and the plasma drug concentrations at different time points after gavage administration of the test sample were measured. The pharmacokinetic behavior of the compound of the present disclosure in rats was studied to evaluate its metabolic characteristics. For each experimental group, 3 rats with similar body weights were selected and orally administered a single dose of 10 mg/kg. […] Pharmacokinetic parameter calculations were performed using metabolic kinetic data analysis software WinNonlin 7.0 by non-compartmental analysis (NCA) based on plasma concentration data.
# A test sample with a final preparation concentration (based on the content of the compound of formula I) of 1.0 mg/mL was prepared for oral administration, using a 0.5% CMC Na aqueous solution as the preparation solvent.
# Administration: After overnight fasting (12 hours), rats were administered by gavage at a dose of 10 mg/kg.
# The blood samples were placed in heparinized sample tubes, and centrifuged at 4°C and 3500 rpm for 10 minutes to separate plasma, which was then stored at -20°C. Food was provided 2 hours after administration.
# Determination of the content of the compound to be tested in rat plasma after gavage administration: After thawing plasma samples at room temperature, 300 µL of internal standard (terfenadine 200 ng/mL, acetonitrile) was added to each sample. The mixtures were vortexed for 1 min and then centrifuged at 4°C and 15400 rpm for 10 min. The supernatant was diluted 20-fold with 80% acetonitrile-water and then injected for LC/MS/MS analysis.
# [2] = Hygroscopicity test method (DVS); format: physicochemical; design: Sorption / Desorption / Hysteresis: unit not given here; conditions: for Hygroscopicity (80% RH) / Hygroscopicity (80% RH), description in words: 25°C, DVS; for Desorption / Sorption / Hysteresis: onset temperature 24.9°C
# Method: Hygroscopicity test method (DVS): The hygroscopicity of the sample was measured using SMS Intrinsic Plus. The sample was weighed into a sample pan, equilibrated at 25°C until dm/dt was less than 0.002%, and then measured in time mode. The humidity was adjusted from 60%-90%-0%-90%-0% RH, with increments of 10% RH per step, and each humidity level was maintained for 1 hour.
# [3] = Tableting and grinding test (XRPD, FIG. 21 to 25); format: physicochemical
# Method: Grindability test: An appropriate amount of the crystal compound to be tested was placed in a mortar and ground for 2 min and 5 min, followed by XRPD detection. […]
# [4] = Purity test after storage in an oven at set temperature (stability); format: physicochemical; conditions: HPLC; for Purity, Onset: Onset (before storage)
# Method: Purity test: The sample to be tested was dissolved in a methanol solution, and the sample purity was measured by HPLC.
# [5] = as above; format: physicochemical; conditions: 80°C, 1 day
# [6] = Compressibility test (tableting, XRPD detection); format: physicochemical; conditions: compressed into tablets
# [7] = Grindability test (mortar, XRPD detection); format: physicochemical; conditions: for Grindability (mortar 5 min), solid form: XRPD
# Method: Grindability test: An appropriate amount of the crystal compound to be tested was placed in a mortar and ground for 2 min and 5 min, followed by XRPD detection.
# [8] = Cycle 2, target humidity 0.0 % P/P0
# [9] = Cycle 2, target humidity 10.0 % P/P0
# [10] = Cycle 2, target humidity 20.0 % P/P0
# [11] = Cycle 2, target humidity 30.0 % P/P0
# [12] = Cycle 2, target humidity 40.0 % P/P0
# [13] = Cycle 2, target humidity 50.0 % P/P0
# [14] = Cycle 2, target humidity 60.0 % P/P0
# [15] = Cycle 2, target humidity 70.0 % P/P0
# [16] = Cycle 2, target humidity 80.0 % P/P0
# [17] = Cycle 2, target humidity 90.0 % P/P0
# [18] = Target humidity 0.0 % P/P0, first cycle
# [19] = Target humidity 10.0 % P/P0, first cycle
# [20] = Target humidity 20.0 % P/P0, first cycle
# [21] = Target humidity 30.0 % P/P0, first cycle
# [22] = Target humidity 40.0 % P/P0, first cycle
# [23] = Target humidity 50.0 % P/P0, first cycle
# [24] = Target humidity 60.0 % P/P0, first cycle
# [25] = Target humidity 70.0 % P/P0, first cycle
# [26] = Target humidity 80.0 % P/P0, first cycle
# [27] = Target humidity 90.0 % P/P0, first cycle
# [28] = after tableting, after grinding for 5 minutes and for 2 minutes, FIG. 21 to 23
smiles,measurement,setting,value
"O=C(O)c1ccc2nc(CN3CCC(c4ccccc4OCc4ccc(Cl)cc4F)CC3)n(C[C@@H]3CCO3)c2c1 [Crystal form A of the monohydrate of the 2-amino-2-(hydroxymethyl)-1,3-propanediol salt of (S)-2-((4-(2-((4-chloro-2-fluorobenzyl)oxy)phenyl)piperidin-1-yl)methyl)-1-(oxetan-2-aminomethyl)-1H-benzo[d]imidazole-6-carboxylate]",AUC(0-inf),"[1]; in vivo, oral (PO)",772 ng·h/mL
same,AUC(0-t),"[1]; in vivo, oral (PO)",765 ng·h/mL
same,Cmax,"[1]; in vivo, oral (PO)",410 ng/mL
same,Tmax,"[1]; in vivo, oral (PO)",24.6 min
same,half-life,"[1]; in vivo, oral (PO)",95.4 min
"O=C(O)c1ccc2nc(CN3CCC(c4ccccc4OCc4ccc(Cl)cc4F)CC3)n(C[C@@H]3CCO3)c2c1 [Crystal form A of the monohydrate of the compound of formula] [Crystal form A of the monohydrate of the 2-amino-2-(hydroxymethyl)-1,3-propanediol salt of (S)-2-((4-(2-((4-chloro-2-fluorobenzyl)oxy)phenyl)piperidin-1-yl)methyl)-1-(oxetan-2-aminomethyl)-1H-benzo[d]imidazole-6-carboxylate]",Hygroscopicity (80% RH),[2],0.34%
same,"Hygroscopicity (80% RH), description in words",[2],Slightly hygroscopic
same,Desorption,[2]; [8],0.0112
same,Sorption,[2]; [8],0.0000
same,Desorption,[2]; [9],0.1186
same,Hysteresis,[2]; [9],0.0161
same,Sorption,[2]; [9],0.1025
same,Desorption,[2]; [10],0.1641
same,Hysteresis,[2]; [10],0.0175
same,Sorption,[2]; [10],0.1466
same,Desorption,[2]; [11],0.1996
same,Hysteresis,[2]; [11],0.0182
same,Sorption,[2]; [11],0.1814
same,Desorption,[2]; [12],0.2286
same,Hysteresis,[2]; [12],0.0145
same,Sorption,[2]; [12],0.2141
same,Desorption,[2]; [13],0.2611
same,Hysteresis,[2]; [13],0.0167
same,Sorption,[2]; [13],0.2443
same,Desorption,[2]; [14],0.2923
same,Hysteresis,[2]; [14],0.0177
same,Sorption,[2]; [14],0.2746
same,Desorption,[2]; [15],0.3219
same,Hysteresis,[2]; [15],0.0176
same,Sorption,[2]; [15],0.3043
same,Desorption,[2]; [16],0.3457
same,Hysteresis,[2]; [16],0.0099
same,Sorption,[2]; [16],0.3458
same,Desorption,[2]; [17],0.3759
same,Sorption,[2]; [17],0.3759
same,Desorption,[2]; [18],0.0000
same,Desorption,[2]; [19],0.1080
same,Desorption,[2]; [20],0.1542
same,Desorption,[2]; [21],0.1894
same,Desorption,[2]; [22],0.2213
same,Desorption,[2]; [23],0.2553
same,Desorption,[2]; [24],0.2989
same,Hysteresis,[2]; [24],0.0002
same,Sorption,[2]; [24],0.2896
same,Desorption,[2]; [25],0.3213
same,Hysteresis,[2]; [25],0.0053
same,Sorption,[2]; [25],0.3160
same,Desorption,[2]; [26],0.3490
same,Hysteresis,[2]; [26],0.0064
same,Sorption,[2]; [26],0.3426
same,Desorption,[2]; [27],0.3817
same,Sorption,[2]; [27],0.3817
same,Crystallinity after tableting and grinding,"[3]; first and second tableting at 20 MPa, tableting at 40 MPa, grinding for 1, 3 and 5 minutes, FIG. 24, 25",basically stable
same,"Purity, 2 to 8°C (6 months)","[4]; 2 to 8°C, 6 months",99.90%
same,"Purity, Onset",[4],99.95%
same,"Purity, 60°C (7 day)","[4]; oven, 60°C, 7 day",99.90%
same,"Purity, 80°C (1 day)",[4]; oven,99.35%
same,Solid form after 80°C (1 day),[5],retained the crystal form
same,Compressibility (20 Mp),[6],Crystal form unchanged
same,"Grindability (mortar 5 min), purity change",[7],purity unchanged
same,"Grindability (mortar 5 min), solid form",[7],Crystalline form unchanged
same,Oral absorption,[1]; compared with the free acid,significantly better oral absorption than the compound of formula I (free acid)
O=C(O)c1ccc2nc(CN3CCC(c4ccccc4OCc4ccc(Cl)cc4F)CC3)n(C[C@@H]3CCO3)c2c1 [Crystal form I of the compound of formula I] [(S)-2-((4-(2-((4-Chloro-2-fluorobenzyl)oxy)phenyl)piperidin-1-yl)methyl)-1-(oxetan-2-aminomethyl)-1H-benzo[d]imidazole-6-carboxylic acid],Hygroscopicity (80% RH),[2],2.5%
same,"Hygroscopicity (80% RH), description in words",[2],highly hygroscopic
same,Desorption,[2]; [18],0.013
same,Sorption,[2]; [18],0.019
same,Desorption,[2]; [19],0.807
same,Hysteresis,[2]; [19],0.042
same,Sorption,[2]; [19],0.766
same,Desorption,[2]; [20],1.307
same,Hysteresis,[2]; [20],0.035
same,Sorption,[2]; [20],1.271
same,Desorption,[2]; [21],1.588
same,Hysteresis,[2]; [21],0.047
same,Sorption,[2]; [21],1.541
same,Desorption,[2]; [22],1.816
same,Hysteresis,[2]; [22],0.062
same,Sorption,[2]; [22],1.754
same,Desorption,[2]; [23],2.072
same,Hysteresis,[2]; [23],0.112
same,Sorption,[2]; [23],1.960
same,Desorption,[2]; [24],2.286
same,Hysteresis,[2]; [24],0.125
same,Sorption,[2]; [24],2.161
same,Desorption,[2]; [25],2.441
same,Hysteresis,[2]; [25],0.097
same,Sorption,[2]; [25],2.344
same,Desorption,[2]; [26],2.576
same,Hysteresis,[2]; [26],0.065
same,Sorption,[2]; [26],2.511
same,Desorption,[2]; [27],2.685
same,Sorption,[2]; [27],2.685
same,Crystallinity after tableting and grinding,[3]; [28],decreasing crystallinity in different degrees
same,"Purity, Onset",[4],99.27%
same,"Purity, 80°C (1 day)",[4]; oven,91.81%
same,Compressibility (20 Mp),[6],"Crystal form I, significant reduction in crystallinity"
same,"Grindability (mortar 5 min), purity",[7],99.25%
same,"Grindability (mortar 5 min), solid form",[7],transformed to amorphous
O=C(O)c1ccc2nc(CN3CCC(c4ccccc4OCc4ccc(Cl)cc4F)CC3)n(C[C@@H]3CCO3)c2c1 [Crystal form II of the compound of formula I] [(S)-2-((4-(2-((4-Chloro-2-fluorobenzyl)oxy)phenyl)piperidin-1-yl)methyl)-1-(oxetan-2-aminomethyl)-1H-benzo[d]imidazole-6-carboxylic acid],Crystallinity after tableting and grinding,[3]; [28],decreasing crystallinity in different degrees
same,"Purity, Onset",[4],99.73%
same,"Purity, 80°C (1 day)",[4]; oven,80.43%
same,Solid form after 80°C (1 day),[5],transformed to amorphous
same,Compressibility (20 Mp),[6],"Crystal form II, significant reduction in crystallinity"
same,"Grindability (mortar 5 min), purity",[7],99.7%
same,"Grindability (mortar 5 min), solid form",[7],transformed to amorphous
O=C(O)c1ccc2nc(CN3CCC(c4ccccc4OCc4ccc(Cl)cc4F)CC3)n(C[C@@H]3CCO3)c2c1 [Crystal form III of the compound of formula I] [(S)-2-((4-(2-((4-Chloro-2-fluorobenzyl)oxy)phenyl)piperidin-1-yl)methyl)-1-(oxetan-2-aminomethyl)-1H-benzo[d]imidazole-6-carboxylic acid],Crystallinity after tableting and grinding,[3]; [28],decreasing crystallinity in different degrees
same,"Purity, Onset",[4],99.25%
same,"Purity, 80°C (1 day)",[4]; oven,83.43%
same,Solid form after 80°C (1 day),[5],transformed to amorphous
same,Compressibility (20 Mp),[6],"Crystal form III, no significant reduction in crystallinity"
same,"Grindability (mortar 5 min), purity",[7],98.65%
same,"Grindability (mortar 5 min), solid form",[7],transformed to amorphous
"O=C([O-])c1ccc2nc(CN3CCC(c4ccccc4OCc4ccc(Cl)cc4F)CC3)n(C[C@@H]3CCO3)c2c1.[Na+] [Sodium salt of the compound of formula I, Sodium salt of (S)-2-((4-(2-((4-chloro-2-fluorobenzyl)oxy)phenyl)piperidin-1-yl)methyl)-1-(oxetan-2-aminomethyl)-1H-benzo[d]imidazole-6-carboxylate]","Hygroscopicity (80% RH), description in words",[2],"Highly hygroscopic, deliquescent"
